The assay can be described thus: Inhibition of recombinant human Inositol 3,4,5,6 tetrakisphosphate 1-kinase using [3H]Ins(3,4,5,6)[…] as substrate.

We go through 3 compounds from ChEMBL document CHEMBL1133807, “Regiospecific phosphohydrolases from Dictyostelium as tools for the chemoenzymatic synthesis of the enantiomers D-myo-inositol 1,2,4-trisphosphate and D-myo-inositol 2,3,6-trisphosphate: non-physiological, potential analogues of biologically active D-myo-inositol 1,3,4-trisphosphate” (Bioorg Med Chem Lett, 2001).

As for `O=P(O)(O)O[C@H]1[C@H](O)[C@@H](O)[C@H](OP(=O)(O)O)[C@@H](OP(=O)(O)O)[C@H]1O`, the IC50 is roughly 4 µM.

Turning to `O=P(O)(O)O[C@H]1[C@H](O)[C@@H](O)[C@H](OP(=O)(O)O)[C@H](OP(=O)(O)O)[C@@H]1O`, the IC50 is roughly 9 µM.

Take `O=P(O)(O)O[C@@H]1[C@@H](O)[C@H](O)[C@@H](OP(=O)(O)O)[C@@H](OP(=O)(O)O)[C@H]1O`: the IC50 is no less than 300 µM.
